The test has as its system L1210 leukemia ip in BDF1 mice, survival T/C. The test is described as follows: NCI In Vivo Anticancer Drug Screen. Data for tumor model L1210 Leukemia (intraperitoneal) in B6D2F1 (BDF1) mice. The settings on record: endpoint: mean survival time, higher = longer survival. The procedure, abridged: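 Value reflects the ratio of survival in compound-treated mice to survival in vehicle-treated controls, with both groups carrying the same transplanted tumor.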

Setting [1] is: dose: 100.0 mg/kg/injection, schedule: Q04DX003 (ip), vehicle: saline with Tween-80.
Setting [2] is: dose: 200.0 mg/kg/injection, schedule: Q04DX003 (ip), vehicle: saline with Tween-80.
The mark [3] stands for this setting: dose: 400.0 mg/kg/injection, schedule: Q04DX003 (ip), vehicle: saline with Tween-80.
[4] abbreviates: dose: 100.0 mg/kg/injection, schedule: Q04DX003 (ip), vehicle: Klucel (hydroxypropylcellulose) (HPC).
Setting [5] is: dose: 200.0 mg/kg/injection, schedule: Q04DX003 (ip), vehicle: Klucel (hydroxypropylcellulose) (HPC).
Where [6] appears, read: dose: 400.0 mg/kg/injection, schedule: Q04DX003 (ip), vehicle: Klucel (hydroxypropylcellulose) (HPC).
The mark [7] stands for this setting: dose: 50.0 mg/kg/injection, schedule: Q04DX003 (ip), vehicle: saline with Tween-80.
The mark [8] stands for this setting: dose: 100.0 mg/kg/injection, schedule: Q01DX001 (ip), vehicle: saline with Tween-80.
Where [9] appears, read: dose: 100.0 mg/kg/injection, schedule: Q01DX009 (ip), vehicle: saline with Tween-80.
The mark [10] stands for this setting: dose: 200.0 mg/kg/injection, schedule: Q01DX001 (ip), vehicle: saline with Tween-80.
Setting [11] is: dose: 200.0 mg/kg/injection, schedule: Q01DX009 (ip), vehicle: saline with Tween-80.
Setting [12] is: dose: 400.0 mg/kg/injection, schedule: Q01DX009 (ip), vehicle: saline with Tween-80.

Where “and” joins values, the source holds several entries; their conditions need not be identical. Identical values can stand only once. Toxic doses and inconclusive results are not listed. Peptide text beside a SMILES is read from it. * marks the point of attachment. Trt = c1ccc(C(c2ccccc2)(c2ccccc2)*)cc1; Cbz = O=C(OCc1ccccc1)*; NHNH2 = NN*

12 compounds from PubChem BioAssay AID248 (DTP/NCI, 2004) can be followed below.

As to `NNC(=O)C(Cc1ccc(O)cc1)NC(=O)C(CO)NC(=O)C(CSC(c1ccccc1)(c1ccccc1)c1ccccc1)NC(=O)OCc1ccccc1` (stereo not drawn) (Cbz-Cys(Trt)-Ser-Tyr-NHNH2; configuration not given here), the T/C (dose: 75.0 mg/kg/injection, schedule: Q01DX001 (ip), vehicle: saline) was 96 % of control; the T/C (dose: 150.0 mg/kg/injection, schedule: Q01DX001 (ip), vehicle: saline) was 96 % of control; the T/C (dose: 300.0 mg/kg/injection, schedule: Q01DX001 (ip), vehicle: saline) is 90 % of control.
On to `CCN(CCO)CC(C)Nc1ccc([N+](=O)[O-])c2sc3ccccc3c(=O)c12` (stereo not given), for which the T/C (dose: 1.5 mg/kg/injection, schedule: Q01DX Z (ip), vehicle: carboxymethylcellulose (CMC)) was 96 % of control; the T/C (dose: 3.0 mg/kg/injection, schedule: Q01DX Z (ip), vehicle: carboxymethylcellulose (CMC)) was 107 % of control; the T/C (dose: 3.5 mg/kg/injection, schedule: Q01DX Z (ip), vehicle: saline) is 101 % of control; the T/C (dose: 5.3 mg/kg/injection, schedule: Q01DX Z (ip), vehicle: saline) is 115 % of control; the T/C (dose: 6.0 mg/kg/injection, schedule: Q01DX Z (ip), vehicle: carboxymethylcellulose (CMC)) was 100 % of control; the T/C (dose: 8.0 mg/kg/injection, schedule: Q01DX Z (ip), vehicle: saline) is 104 % of control. For the same compound, the T/C (dose: 10.0 mg/kg/injection, schedule: Q01DX Z (ip), vehicle: other) was 107 % of control; the T/C (dose: 12.0 mg/kg/injection, schedule: Q01DX Z (ip), vehicle: carboxymethylcellulose (CMC)) was 110 % of control; the T/C (dose: 12.0 mg/kg/injection, schedule: Q01DX Z (ip), vehicle: saline) was 105 % of control and 89 % of control; the T/C (dose: 18.0 mg/kg/injection, schedule: Q01DX Z (ip), vehicle: saline) is 91 % of control; the T/C (dose: 30.0 mg/kg/injection, schedule: Q01DX Z (ip), vehicle: other) is 156 % of control; the T/C (dose: 40.0 mg/kg/injection, schedule: Q01DX Z (ip), vehicle: saline) is 166 % of control. Besides, the T/C is, setting by setting: (dose: 60.0 mg/kg/injection, schedule: Q01DX Z (ip), vehicle: saline) 104 % of control; (dose: 90.0 mg/kg/injection, schedule: Q01DX Z (ip), vehicle: other) 121 % of control; (dose: 90.0 mg/kg/injection, schedule: Q01DX Z (ip), vehicle: saline) 89 % of control; (dose: 91.5 mg/kg/injection, schedule: Q01DX Z (ip), vehicle: saline) 160 % of control; (dose: 100.0 mg/kg/injection, schedule: Q01DX001 (ip), vehicle: saline) 114 % of control; (dose: 137.0 mg/kg/injection, schedule: Q01DX Z (ip), vehicle: saline) 124 % of control. Further, the T/C (dose: 400.0 mg/kg/injection, schedule: Q01DX001 (ip), vehicle: saline) was 167 % of control and 175 % of control.
With `O/N=C(/CN1CCCCC1)c1ccccc1`, the T/C runs as follows: under setting [1], 95 % of control; under setting [2], 98 % of control; under setting [3], 104 % of control.
In the case of `CCOC(=O)C(NC=O)C(=O)OCC`, the T/C is, setting by setting: (dose: 25.0 mg/kg/injection, schedule: Q01DX009 (ip), vehicle: saline) 101 % of control; (dose: 50.0 mg/kg/injection, schedule: Q01DX009 (ip), vehicle: saline) 101 % of control; (dose: 100.0 mg/kg/injection, schedule: Q01DX009 (ip), vehicle: saline) 101 % of control; (dose: 200.0 mg/kg/injection, schedule: Q01DX009 (ip), vehicle: saline) 103 % of control; (dose: 400.0 mg/kg/injection, schedule: Q01DX009 (ip), vehicle: saline) 98 % of control.
For `COc1ccc(Cl)cc1NC(=O)CC(C)=O`, the T/C is 101 % of control (dose: 100.0 mg/kg/injection, schedule: Q01DX009 (ip), vehicle: Klucel (hydroxypropylcellulose) (HPC)); 97 % of control under setting [4]; 101 % of control (dose: 200.0 mg/kg/injection, schedule: Q01DX009 (ip), vehicle: Klucel (hydroxypropylcellulose) (HPC)); 99 % of control under setting [5]; 95 % of control (dose: 400.0 mg/kg/injection, schedule: Q01DX009 (ip), vehicle: Klucel (hydroxypropylcellulose) (HPC)); 94 % of control under setting [6].
In the case of `NC(=O)c1[nH]c(CCCc2ccccc2)nc1N`, the T/C by setting is: (dose: 50.0 mg/kg/injection, schedule: Q01DX009 (ip), vehicle: saline with Tween-80) 102 % of control; under setting [7], 103 % of control; under setting [8], 110 % of control; under setting [9], 90 % of control; under setting [1], 109 % of control; under setting [10], 100 % of control. In addition, the T/C is 102 % of control under setting [11] and 100 % of control under setting [2].
With `O=C(Cn1ccc(=O)[nH]c1=O)c1ccc(Cl)s1`, the T/C reads like this: under setting [9], 100 % of control; under setting [1], 96 % of control; under setting [11], 97 % of control; under setting [2], 98 % of control; under setting [12], 91 % of control; under setting [3], 104 % of control.
As for `CON=C(c1ccc(N(C)C)cc1)c1ccc(N(C)C)cc1`, the T/C (dose: 100.0 mg/kg/injection, schedule: Q01DX001 (ip), vehicle: Klucel (hydroxypropylcellulose) (HPC)) was 104 % of control; the T/C under setting [4] is 103 % of control; the T/C (dose: 200.0 mg/kg/injection, schedule: Q01DX001 (ip), vehicle: Klucel (hydroxypropylcellulose) (HPC)) is 101 % of control; the T/C under setting [5] was 100 % of control; the T/C (dose: 400.0 mg/kg/injection, schedule: Q01DX001 (ip), vehicle: Klucel (hydroxypropylcellulose) (HPC)) is 101 % of control; the T/C under setting [6] was 92 % of control.
In the case of `Cc1cnc(C#N)c(-n2ccnc2)n1`, the T/C is 107 % of control (dose: 50.0 mg/kg/injection, schedule: Q01DX009 (ip), vehicle: water); 94 % of control (dose: 100.0 mg/kg/injection, schedule: Q01DX009 (ip), vehicle: water); 108 % of control (dose: 100.0 mg/kg/injection, schedule: Q04DX003 (ip), vehicle: water); 92 % of control (dose: 200.0 mg/kg/injection, schedule: Q01DX009 (ip), vehicle: water); 98 % of control (dose: 200.0 mg/kg/injection, schedule: Q04DX003 (ip), vehicle: water).
With `CC(C)(C)NC(=O)NC1CCCCC1`, the T/C under setting [8] is 95 % of control; the T/C under setting [9] was 94 % of control and 110 % of control; the T/C (dose: 100.0 mg/kg/injection, schedule: Q04DX002 (ip), vehicle: saline with Tween-80) is 97 % of control and 100 % of control; the T/C (dose: 100.0 mg/kg/injection, schedule: Q04DX003 (ip), vehicle: saline) is 101 % of control; the T/C under setting [10] was 98 % of control; the T/C under setting [11] is 100 % of control and 87 % of control. Further, the T/C is, setting by setting: (dose: 200.0 mg/kg/injection, schedule: Q04DX002 (ip), vehicle: saline with Tween-80) 97 % of control; (dose: 200.0 mg/kg/injection, schedule: Q04DX003 (ip), vehicle: saline) 111 % of control; (dose: 400.0 mg/kg/injection, schedule: Q01DX001 (ip), vehicle: saline with Tween-80) 95 % of control; under setting [12], 100 % of control and 115 % of control; (dose: 400.0 mg/kg/injection, schedule: Q04DX002 (ip), vehicle: saline with Tween-80) 94 % of control and 90 % of control; (dose: 400.0 mg/kg/injection, schedule: Q04DX003 (ip), vehicle: saline) 101 % of control.
Turning to `Clc1ccc2c(OCCN3CC3)ccnc2c1`, the T/C (dose: 100.0 mg/kg/injection, schedule: Q01DX001 (ip), vehicle: carboxymethylcellulose (CMC)) is 102 % of control.
Turning to `CN(C)C(=S)SCSC(=S)N(C)C`, the T/C runs as follows: (dose: 25.0 mg/kg/injection, schedule: Q04DX003 (ip), vehicle: saline with Tween-80) 100 % of control; under setting [7], 91 % of control; (dose: 100.0 mg/kg/injection, schedule: Q04DX002 (ip), vehicle: Klucel (hydroxypropylcellulose) (HPC)) 97 % of control; under setting [1], 91 % of control; (dose: 200.0 mg/kg/injection, schedule: Q04DX002 (ip), vehicle: Klucel (hydroxypropylcellulose) (HPC)) 93 % of control; (dose: 400.0 mg/kg/injection, schedule: Q04DX002 (ip), vehicle: Klucel (hydroxypropylcellulose) (HPC)) 93 % of control.
